Measurements reported in patent US9695155B2, “Herbicidal substituted pyrimidinyloxy benzene compounds” (E. I. DU PONT DE NEMOURS AND COMPANY, priority 2013, dated 2017).

Key:
[1] = system: corn; assay: Test A postemergence; format: in vivo, Zea mays
Procedure, shortened: (§1)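 Visual 0–100 rating (100 = complete control) taken about 10 d post-treatment relative to untreated checks. Preemergence: directed soil spray on sown loam/sand pots. Postemergence: seedlings 2–10 cm, 1–2 leaf. Non-phytotoxic solvent formulation with surfactant.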

[2] = system: giant foxtail; assay: Test A preemergence; format: in vivo, Setaria faberii; settings: for Foxtail, Giant plant response rating: 500 g ai/ha
Procedure, shortened: as §1

[3] = system: sedge, umbrella; assay: Test B flooded paddy test; format: in vivo, Cyperus difformis; settings: Flood, 250 g ai/ha; 0 to 100 scale where 0 is no effect and 100 is complete control
Procedure, shortened: (§2)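 Plants were grown to the 2-leaf stage, then pots were flooded to 3 cm above the soil and compounds were applied directly into the paddy water. That depth was held throughout, and after 13 to 15 days in the greenhouse injury was rated visually against controls on a 0–100 scale (0 no effect, 100 complete control).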

[4] = system: pigweed; assay: Test A preemergence; format: in vivo, Amaranthus retroflexus; settings: for Pigweed plant response rating: 500 g ai/ha
Procedure, shortened: as §1

[5] = system: velvetleaf; assay: Test A preemergence; format: in vivo, Abutilon theophrasti; settings: for Velvetleaf plant response rating: 500 g ai/ha
Procedure, shortened: as §1

[6] = system: pigweed; assay: Test A postemergence; format: in vivo, Amaranthus retroflexus
Procedure, shortened: as §1

[7] = system: corn; assay: Test A preemergence; format: in vivo, Zea mays; settings: for Corn plant response rating: 500 g ai/ha
Procedure, shortened: as §1

[8] = system: giant foxtail; assay: Test A postemergence; format: in vivo, Setaria faberii
Procedure, shortened: as §1

[9] = system: morningglory; assay: Test A postemergence; format: in vivo, Ipomoea spp.
Procedure, shortened: as §1

[10] = system: morningglory; assay: Test A preemergence; format: in vivo, Ipomoea spp.; settings: for Morningglory plant response rating: 500 g ai/ha
Procedure, shortened: as §1

[11] = system: barnyardgrass; assay: Test A postemergence; format: in vivo, Echinochloa crus-galli
Procedure, shortened: as §1

[12] = system: rice; assay: Test B flooded paddy test; format: in vivo, Oryza sativa; settings: Flood, 250 g ai/ha; 0 to 100 scale where 0 is no effect and 100 is complete control
Procedure, shortened: as §2

[13] = system: wheat; assay: Test A postemergence; format: in vivo, Triticum aestivum
Procedure, shortened: as §1

[14] = system: large (Lg) crabgrass; assay: Test A preemergence; format: in vivo, Digitaria sanguinalis; settings: for Crabgrass, Large plant response rating: 500 g ai/ha
Procedure, shortened: as §1

[15] = system: barnyardgrass; assay: Test A preemergence; format: in vivo, Echinochloa crus-galli; settings: for Barnyardgrass plant response rating: 500 g ai/ha
Procedure, shortened: as §1

[16] = system: velvetleaf; assay: Test A postemergence; format: in vivo, Abutilon theophrasti
Procedure, shortened: as §1

[17] = system: large (Lg) crabgrass; assay: Test A postemergence; format: in vivo, Digitaria sanguinalis
Procedure, shortened: as §1

[18] = system: Heteranthera limosa; assay: Test B flooded paddy test; format: in vivo; settings: Flood, 250 g ai/ha; 0 to 100 scale where 0 is no effect and 100 is complete control
Procedure, shortened: as §2

[19] = system: wheat; assay: Test A preemergence; format: in vivo, Triticum aestivum; settings: for Wheat plant response rating: 500 g ai/ha
Procedure, shortened: as §1

[20] = system: barnyardgrass; assay: Test B flooded paddy test; format: in vivo, Echinochloa crus-galli; settings: Flood, 250 g ai/ha; 0 to 100 scale where 0 is no effect and 100 is complete control
Procedure, shortened: as §2

[21] = 125 g ai/ha, 0 to 100 scale where 0 is no effect and 100 is complete control
[22] = 500 g ai/ha, 0 to 100 scale, 0 no effect, 100 complete control
[23] = 0 to 100 scale, 0 no effect, 100 complete control, approx. 10 days
[24] = 500 g ai/ha, 0 to 100 scale where 0 is no effect and 100 is complete control
[25] = 0 to 100 scale where 0 is no effect and 100 is complete control

With FC(F)(F)c1cccc(Oc2ncc(Br)cn2)c1-n1cc(Br)cn1 [Compound 77] the “Plant response rating, Corn” value [1, 21] was 20, the “Plant response rating, Corn” value [1, 22] was 40 and the “Plant response rating, Foxtail, Giant” value [2, 21] was 90. The “Foxtail, Giant plant response rating” value [2, 23] was 100, the “Plant response rating, Sedge, Umbrella” value [3] was 70 and the “Plant response rating, Pigweed” value [4, 21] was 100. The “Pigweed plant response rating” value [4, 23] was 100, the “Plant response rating, Velvetleaf” value [5, 21] was 60 and the “Velvetleaf plant response rating” value [5, 23] was 100. For the same compound, the “Plant response rating, Pigweed” value [6, 21] was 100, the “Plant response rating, Pigweed” value [6, 24] was 100 and the “Plant response rating, Corn” value [7, 21] was 0. For the same compound, the “Corn plant response rating” value [7, 23] was 0, the “Plant response rating, Foxtail, Giant” value [8, 21] was 50 and the “Plant response rating, Foxtail, Giant” value [8, 24] was 90. For the same compound, the “Plant response rating, Morningglory” value [9, 21] was 70, the “Plant response rating, Morningglory” value [9, 24] was 100 and the “Plant response rating, Morningglory” value [10, 21] was 10. For the same compound, the “Morningglory plant response rating” value [10, 23] was 60, the “Plant response rating, Barnyardgrass” value [11, 21] was 40 and the “Plant response rating, Barnyardgrass” value [11, 22] was 70. For the same compound, the “Plant response rating, Rice” value [12] was 20, the “Plant response rating, Wheat” value [13, 21] was 0 and the “Plant response rating, Wheat” value [13, 24] was 30. For the same compound, the “Plant response rating, Crabgrass, Large” value [14, 21] was 90, the “Crabgrass, Large plant response rating” value [14, 23] was 100 and the “Plant response rating, Barnyardgrass” value [15, 21] was 50. For the same compound, the “Barnyardgrass plant response rating” value [15, 23] was 90, the “Plant response rating, Velvetleaf” value [16, 21] was 80 and the “Plant response rating, Velvetleaf” value [16, 24] was 100. The “Plant response rating, Crabgrass, Large” value [17, 21] was 50, the “Plant response rating, Crabgrass, Large” value [17, 22] was 90 and the “Plant response rating, Ducksalad” value [18] was 40. For the same compound, the “Plant response rating, Wheat” value [19, 21] was 0, the “Wheat plant response rating” value [19, 23] was 0 and the “Plant response rating, Barnyardgrass” value [20] was 0.

With COC(=O)c1cccc(Oc2ncc(Cl)cn2)c1-n1cc(Br)cn1 [Compound 211] the “Corn plant response rating” value [1, 21] was 0, the “Plant response rating, Corn” value [1, 24] was 0 and the “Foxtail, Giant plant response rating (0 to 100 scale)” value ([2]; 125 g ai/ha) was 100. The “Foxtail, Giant plant response rating” value [2, 25] was 100, the “Plant response rating, Sedge, Umbrella” value [3] was 0 and the “Pigweed plant response rating (0 to 100 scale)” value ([4]; 125 g ai/ha) was 90. For the same compound, the “Pigweed plant response rating” value [4, 25] was 100, the “Velvetleaf plant response rating (0 to 100 scale)” value ([5]; 125 g ai/ha) was 60 and the “Velvetleaf plant response rating” value [5, 25] was 90. The “Pigweed plant response rating” value [6, 21] was 90, the “Plant response rating, Pigweed” value [6, 24] was 100 and the “Corn plant response rating (0 to 100 scale)” value ([7]; 125 g ai/ha) was 0. The “Corn plant response rating” value [7, 25] was 0, the “Foxtail, Giant plant response rating” value [8, 21] was 30 and the “Plant response rating, Foxtail, Giant” value [8, 24] was 60. For the same compound, the “Morningglory plant response rating” value [9, 21] was 90, the “Plant response rating, Morningglory” value [9, 24] was 100 and the “Morningglory plant response rating (0 to 100 scale)” value ([10]; 125 g ai/ha) was 20. For the same compound, the “Morningglory plant response rating” value [10, 25] was 70, the “Barnyardgrass plant response rating” value [11, 21] was 10 and the “Plant response rating, Barnyardgrass” value [11, 24] was 50. For the same compound, the “Plant response rating, Rice” value [12] was 0, the “Wheat plant response rating” value [13, 21] was 0 and the “Plant response rating, Wheat” value [13, 24] was 0. For the same compound, the “Crabgrass, Large plant response rating (0 to 100 scale)” value ([14]; 125 g ai/ha) was 80, the “Crabgrass, Large plant response rating” value [14, 25] was 100 and the “Barnyardgrass plant response rating (0 to 100 scale, 0 is no effect, 100 is complete control)” value ([15]; 125 g ai/ha) was 0. For the same compound, the “Barnyardgrass plant response rating” value [15, 25] was 60, the “Velvetleaf plant response rating” value [16, 21] was 50 and the “Plant response rating, Velvetleaf” value [16, 24] was 90. For the same compound, the “Crabgrass, Large plant response rating” value [17, 21] was 10, the “Plant response rating, Crabgrass, Large” value [17, 24] was 50 and the “Plant response rating, Ducksalad” value [18] was 0. For the same compound, the “Wheat plant response rating (0 to 100 scale)” value ([19]; 125 g ai/ha) was 0, the “Wheat plant response rating” value [19, 25] was 0 and the “Plant response rating, Barnyardgrass” value [20] was 0.

With Cc1cnc(Oc2cccc(C#N)c2-n2cc(Br)cn2)nc1 [Compound 76] the “Plant response rating, Corn” value [1, 21] was 10, the “Plant response rating, Corn” value [1, 22] was 80 and the “Plant response rating, Foxtail, Giant” value [2, 21] was 80. For the same compound, the “Foxtail, Giant plant response rating” value [2, 23] was 100, the “Plant response rating, Sedge, Umbrella” value [3] was 75 and the “Plant response rating, Pigweed” value [4, 21] was 100. For the same compound, the “Pigweed plant response rating” value [4, 23] was 100, the “Plant response rating, Velvetleaf” value [5, 21] was 90 and the “Velvetleaf plant response rating” value [5, 23] was 100. For the same compound, the “Plant response rating, Pigweed” value [6, 21] was 90, the “Plant response rating, Pigweed” value [6, 24] was 100 and the “Plant response rating, Corn” value [7, 21] was 20. The “Corn plant response rating” value [7, 23] was 30, the “Plant response rating, Foxtail, Giant” value [8, 21] was 60 and the “Plant response rating, Foxtail, Giant” value [8, 24] was 90. The “Plant response rating, Morningglory” value [9, 21] was 60, the “Plant response rating, Morningglory” value [9, 24] was 90 and the “Plant response rating, Morningglory” value [10, 21] was 0. For the same compound, the “Morningglory plant response rating” value [10, 23] was 80, the “Plant response rating, Barnyardgrass” value [11, 21] was 60 and the “Plant response rating, Barnyardgrass” value [11, 22] was 100. For the same compound, the “Plant response rating, Rice” value [12] was 0, the “Plant response rating, Wheat” value [13, 21] was 0 and the “Plant response rating, Wheat” value [13, 24] was 10. The “Plant response rating, Crabgrass, Large” value [14, 21] was 100, the “Crabgrass, Large plant response rating” value [14, 23] was 100 and the “Plant response rating, Barnyardgrass” value [15, 21] was 50. For the same compound, the “Barnyardgrass plant response rating” value [15, 23] was 100, the “Plant response rating, Velvetleaf” value [16, 21] was 80 and the “Plant response rating, Velvetleaf” value [16, 24] was 100. For the same compound, the “Plant response rating, Crabgrass, Large” value [17, 21] was 70, the “Plant response rating, Crabgrass, Large” value [17, 22] was 100 and the “Plant response rating, Ducksalad” value [18] was 70. For the same compound, the “Plant response rating, Wheat” value [19, 21] was 0, the “Wheat plant response rating” value [19, 23] was 30 and the “Plant response rating, Barnyardgrass” value [20] was 0.

COc1ccc(Oc2ncc(Br)cn2)c(-n2cc(Br)cn2)c1 [Compound 43] was tested, and the “Plant response rating, Corn” value [1, 21] was 0, the “Plant response rating, Corn” value [1, 22] was 10 and the “Plant response rating, Foxtail, Giant” value [2, 21] was 10. The “Foxtail, Giant plant response rating” value [2, 23] was 20, the “Plant response rating, Sedge, Umbrella” value [3] was 0 and the “Plant response rating, Pigweed” value [4, 21] was 0. For the same compound, the “Pigweed plant response rating” value [4, 23] was 20, the “Plant response rating, Velvetleaf” value [5, 21] was 30 and the “Velvetleaf plant response rating” value [5, 23] was 50. The “Plant response rating, Pigweed” value [6, 21] was 30, the “Plant response rating, Pigweed” value [6, 22] was 40 and the “Plant response rating, Corn” value [7, 21] was 0. The “Corn plant response rating” value [7, 23] was 0, the “Plant response rating, Foxtail, Giant” value [8, 21] was 0 and the “Plant response rating, Foxtail, Giant” value [8, 22] was 40. The “Plant response rating, Morningglory” value [9, 21] was 30, the “Plant response rating, Morningglory” value [9, 22] was 50 and the “Plant response rating, Morningglory” value [10, 21] was 0. The “Morningglory plant response rating” value [10, 23] was 0, the “Plant response rating, Barnyardgrass” value [11, 21] was 0 and the “Plant response rating, Barnyardgrass” value [11, 22] was 10. The “Plant response rating, Rice” value [12] was 0, the “Plant response rating, Wheat” value [13, 21] was 0 and the “Plant response rating, Wheat” value [13, 22] was 0. For the same compound, the “Plant response rating, Crabgrass, Large” value [14, 21] was 10, the “Crabgrass, Large plant response rating” value [14, 23] was 50 and the “Plant response rating, Barnyardgrass” value [15, 21] was 0. The “Barnyardgrass plant response rating” value [15, 23] was 10, the “Plant response rating, Velvetleaf” value [16, 21] was 60 and the “Plant response rating, Velvetleaf” value [16, 22] was 100. For the same compound, the “Plant response rating, Crabgrass, Large” value [17, 21] was 10, the “Plant response rating, Crabgrass, Large” value [17, 22] was 20 and the “Plant response rating, Ducksalad” value [18] was 75. For the same compound, the “Plant response rating, Wheat” value [19, 21] was 0, the “Wheat plant response rating” value [19, 23] was 0 and the “Plant response rating, Barnyardgrass” value [20] was 0.
